This note sets out measurements from ChEMBL document CHEMBL1128765, “Growth inhibitory effect of naphthofuran and naphthofuranquinone derivatives on Trypanosoma cruzi epimastigotes” (Bioorg Med Chem Lett, 1995).

Test [1] has as its system Trypanosoma cruzi. Description: In vitro for antitrypanosomal activity against Trypanosoma cruzi epimastigote, SC-28 strain. It is filed as functional, organism-based.
The test system of test [2] is Trypanosoma cruzi. Description: In vitro antitrypanosomal activity against Trypanosoma cruzi epimastigote, CL strain. It is filed as functional, organism-based.
The test system of test [3] is Trypanosoma cruzi. In words: In vitro for antitrypanosomal activity against Trypanosoma cruzi epimastigote, Ystrain. It is filed as functional, organism-based.
Test [4] relates to Trypanosoma cruzi. In words: Percent inhibition of growth against Trypanosoma cruzi epimastigotes, Y strain at concentration 4 ug/ml (13-17 uM). It is filed as functional. To be noted: read-out: GI.

By IC50 is commonly meant the concentration at which inhibition is half-maximal. Low readings indicate inhibition by little substance, high ones a need for much substance. Regarding `COc1ccc2c(c1)C(=O)c1cc(C(C)O)oc1C2=O` (configuration not stated), the IC50 in the test on Trypanosoma cruzi [1] came out at 3050 nM; with Trypanosoma cruzi [2] it was 2650 nM; in the test with Trypanosoma cruzi [3], 2820 nM. For the same compound, in the test on Trypanosoma cruzi [4], the inhibition of growth at 4 µg/mL worked out at 100%.
Regarding `COc1ccc2c(c1OC)C(=O)c1occc1C2=O`, the inhibition of growth at 4 µg/mL in the test with Trypanosoma cruzi [4] worked out at 25%.
For `COc1ccc2c(c1)C(=O)c1oc(C(C)=O)cc1C2=O`, the IC50 in the test with Trypanosoma cruzi [1] came to 570 nM; in the test with Trypanosoma cruzi [2] it was 530 nM; with Trypanosoma cruzi [3], 490 nM. For the same compound, the inhibition of growth at 4 µg/mL in the test on Trypanosoma cruzi [4] was found to be 100%.
For the compound `COc1ccc(C(=O)O)c(Cc2ccco2)c1`, the inhibition of growth at 4 µg/mL in the test on Trypanosoma cruzi [4] was 0%.
For the compound `COc1ccc2c(OC(C)=O)c3cc(C(C)=O)oc3cc2c1`, the IC50 in the test with Trypanosoma cruzi [1] is 2170 nM; in the test on Trypanosoma cruzi [2], 1860 nM; with Trypanosoma cruzi [3], 1920 nM. Also, the inhibition of growth at 4 µg/mL in the test with Trypanosoma cruzi [4] came out at 100%.
Take `COc1ccc2c(c1OC)C(=O)c1oc(C(C)O)cc1C2=O` (configuration not stated): the inhibition of growth at 4 µg/mL in the test on Trypanosoma cruzi [4] was 22%.
The same measure, in the same setting: for `COc1ccc2c(c1)C(c1ccc(C(C)=O)o1)OC2=O` (configuration not stated) the value was 17%.
Still for that read-out and setting: for `COc1ccc2c(c1)C(c1ccco1)OC2=O` (configuration not stated) the value was 18%.
`O=C1C(=O)c2ccoc2-c2ccccc21`: the IC50 in the test on Trypanosoma cruzi [1] is 2800 nM; with Trypanosoma cruzi [2] it was 2550 nM; with Trypanosoma cruzi [3], 3020 nM. Moreover, in the test on Trypanosoma cruzi [4], the inhibition of growth at 4 µg/mL was 100%.
`COc1ccc2c(c1OC)C(=O)c1ccoc1C2=O`: the inhibition of growth at 4 µg/mL with Trypanosoma cruzi [4] was 45%.
On the same count and under the same terms, for `COc1ccc2c(c1OC)C(=O)c1oc(C(C)=O)cc1C2=O` the value was 45%; for `COc1cccc2c1C(c1ccco1)OC2=O` (configuration not stated), 19%.
As to `O=C(Cn1ccnc1[N+](=O)[O-])NCc1ccccc1` [BENZNIDAZOLE], the IC50 is 8970 nM in the test with Trypanosoma cruzi [1], 8950 nM in the test on Trypanosoma cruzi [2] and 8050 nM in the test on Trypanosoma cruzi [3]. Besides, the inhibition of growth at 4 µg/mL in the test on Trypanosoma cruzi [4] came out at 100%.
For `CC1CS(=O)(=O)CCN1/N=C/c1ccc([N+](=O)[O-])o1` (configuration not stated) [NIFURTIMOX] the same measures were 3550 nM, 3810 nM, 3290 nM and 100%.
